The values that follow come from patent publication US5905074A, “Vitamin D derivative” (Hoffmann-La Roche Inc., priority 1995, dated 1999).

In general, EC50 refers to the concentration at which the effect is half-maximal.

One series deals with HL-60 cells. Nature of the series: HL-60 differentiation (NBT reduction, oxidative burst potential). As to conditions: Homo sapiens, HL-60, 72 h; 3 days; 50% of maximal differentiation achieved with 100-1000 nM calcitriol. Type of series: cell-based. Here is the method:
The induction of differentiation of HL-60 cells was assayed by measuring their oxidative burst potential via the reduction of NBT (Nitro-bluetetraolium) according to a modified procedure of E. Pick et al. in J. Reticul.
30,000 cells/90 μl of RPMI/FCS were seeded into flat-bottomed microtiter wells. Immediately after seeding, 10 μl of vitamin D derivatives diluted in complete medium (RPMI/FCS) were added to yield final concentrations between 10^-11 and 10^-6 M (starting from 1 mM stock solutions in ethanol which were stored at -20° and protected from light). After 3 days, the medium was removed with a multichannel pipette and replaced with 100 μl of NBT solution (1 mg/ml in Dulbecco's PBS with 200 nM phorbol myristate acetate (PMA)). Following an incubation of 1 hour at 37° C. the NBT solution was removed and 100 μl of 10% SDS in 0.01N HCl was added. After further incubation at 37° C. for 6 hours (or more), the amount of the reduced NBT was quantified photometrically at 540 nm using an automated plate reader. The mean of 3 wells was calculated.
Values were expressed as percent of maximal differentiation achieved with 100-1000 nM calcitriol in the same experiment.

For the next series, the target named is T1, human VDR (Homo sapiens, UniProt P11473).
T1 construct: expressed in transfected cells; host or cells: COS cells or CV-1 cells (VDR expressed in pSG5)
T1 sequence (P11473 1-427): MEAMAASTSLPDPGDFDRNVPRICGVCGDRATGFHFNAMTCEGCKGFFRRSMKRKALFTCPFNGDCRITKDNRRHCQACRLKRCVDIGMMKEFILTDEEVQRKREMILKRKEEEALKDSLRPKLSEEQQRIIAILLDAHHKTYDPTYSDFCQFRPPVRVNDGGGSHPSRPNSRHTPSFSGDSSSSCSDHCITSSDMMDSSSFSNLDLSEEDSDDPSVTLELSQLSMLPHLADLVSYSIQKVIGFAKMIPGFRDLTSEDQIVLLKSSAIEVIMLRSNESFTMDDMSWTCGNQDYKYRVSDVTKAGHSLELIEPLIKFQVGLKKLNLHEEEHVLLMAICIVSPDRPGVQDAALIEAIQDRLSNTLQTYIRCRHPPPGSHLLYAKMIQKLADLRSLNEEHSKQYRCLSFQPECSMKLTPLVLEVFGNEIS
In words: VDR activation (transcription activation assay, luciferase reporter). Type of series: cell-based. The conditions noted are these: half-maximal induction of luciferase activity. From the text: In order to measure the activation of the vitamin D receptor (VDR) by vitamin D analogs in cells a transcription activation assay was used. COS cells or CV-1 cells were cotransfected with the human VDR (expressed in pSG5) and a reporter gene containing three response elements (VDRE3) from the rat osteocalcine gene, the thymidine kinase basal promoter, and the luciferase reporter gene.
(A reporter such as luciferase makes a cellular process visible.)

Series [1] can be described thus: Calcium liability (tolerance test in mice). The conditions noted are these: mouse, in vivo, sc; daily subcutaneous, 4 consecutive days; dose resulting in zero weight gain during 5 day treatment period; read-out: highest tolerated dose (mice). The text has this: This routine test gives a global picture of calcemic liability. Profound changes in calcium homeostasis strongly affect the weight development of the animals. This parameter was used as a primary test for tolerance.
Mice (25-30 g body weight) received daily subcutaneous administrations of the vitamin D derivative for 4 consecutive days. Body weight was registered just before and at the end of a […] treatment period. The "highest tolerated dose" (HTD) in mice is the dose which results in zero weight gain during this treatment period.

As for `C=C1/C(=C\C=C2/CCC[C@]3(C)[C@@H]([C@H](C)CCCC(C)(C)O)CC[C@@H]23)C[C@@H](O)C[C@@H]1O` [Calcitriol, reference compound], the half-maximal effective concentration (EC50) with HL-60 cells is 5 nM.

Consider `C=C1/C(=C\C=C2/CCC[C@]3(C)[C@@H]([C@H](C)CCCC(C)(C)O)CCC[C@@H]23)C[C@@H](O)C[C@@H]1O` [Compound of formula I, (1R,3S)-5-[(Z)-2-[(E)-(4aR,5R,8aR)-5-[(R)-5-Hydroxy-1,5-dimethyl-hexyl]-4a-methyl-octahydro-naphtalen-1-ylidene]-ethylidene]-4-methylene-cyclohexane-1,3-diol], for which the results for the EC50 on human VDR (COS cells), at human VDR (CV-1 cells) and in the series with HL-60 cells were 1.2 nM, 0.04 nM and 0.37 nM, respectively. Further, the MTD in series [1] turned out to be 0.6 µg/kg.
